Experimental data reported in patent publication US8377974B2 (Millennium Pharmaceuticals, Inc., priority 2004, dated 2013).

Biological target: T1, human plasma protein factor Xa (Homo sapiens, UniProt P00742)
T1 construct: measure proteolytic activity of the enzyme (factor Xa); purchased Haematologic Technologies (Essex Junction, Vt.); host or cells: human plasma
Experiment: Factor Xa IC50 determination: cleavage of paranitroanilide substrate S-2765 in 96-well plates
Type: biochemical
Conditions: fXa 1 nM, S-2765 100 μM, Tris buffered saline pH 7.4, room temperature
In short: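 Initial rates of S-2765 (100 μM final) cleavage, read at 405 nm for 2 min, fitted with a four-parameter equation to give IC50. Enzyme: 1 nM human plasma fXa, 5 min room-temperature preincubation with inhibitor (0.01 nM–10 μM) in 20 mM Tris, 150 mM NaCl, 5 mM CaCl2, 0.1% BSA, 5% DMSO, pH 7.4; duplicates.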

T1 sequence (P00742 235-488 limits assumed): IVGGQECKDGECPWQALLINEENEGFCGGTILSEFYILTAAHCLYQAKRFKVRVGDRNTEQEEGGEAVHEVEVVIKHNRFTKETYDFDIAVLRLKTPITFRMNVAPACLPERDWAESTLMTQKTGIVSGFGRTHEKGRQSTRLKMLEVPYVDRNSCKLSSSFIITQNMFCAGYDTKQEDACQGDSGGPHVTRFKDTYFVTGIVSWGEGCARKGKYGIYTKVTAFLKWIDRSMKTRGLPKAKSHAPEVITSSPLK
T1 sequence (P00742 41-179 partner limits assumed): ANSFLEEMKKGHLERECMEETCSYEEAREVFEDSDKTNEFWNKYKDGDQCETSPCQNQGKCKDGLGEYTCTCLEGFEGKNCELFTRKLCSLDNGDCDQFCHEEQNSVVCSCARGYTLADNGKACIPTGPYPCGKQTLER

SMILES: CN(Cc1cc(-c2ccc(C3=NCCN3C)cc2)no1)C(=O)c1ccc(Cl)s1 [Example 36, 5-Chloro-thiophene-2-carboxylic acid methyl-{3-[4-(1-methyl-4,5-dihydro-1H-imidazol-2-yl)-phenyl]-isoxazol-5-ylmethyl}-amide]
- IC50: ≥ 500 nM

SMILES: CN1CCN=C1c1ccc(-c2cc(CNC(=O)c3ccc(Cl)s3)on2)c(N(C)C)c1 [Example 95, 5-Chloro-thiophene-2-carboxylic acid {3-[2-dimethylamino-4-(1-methyl-4,5-dihydro-1H-imidazol-2-yl)-phenyl]-isoxazol-5-ylmethyl}-amide]
- IC50: ≤ 100 nM

SMILES: COc1ccc(CN(C)C)c(-c2ccc(-c3cc(CNC(=O)c4ccc(Cl)s4)on3)cc2)c1 [Example 215, 5-Chloro-thiophene-2-carboxylic acid [3-(2′-dimethylaminomethyl-5′-methoxy-biphenyl-4-yl)-isoxazol-5-ylmethyl]-amide]
- IC50: ≥ 500 nM

SMILES: COC(=O)c1ccc(-c2cc(CNC(=O)c3ccc(Cl)s3)on2)cc1 [Example 157, 4-(5-{[(5-Chloro-thiophene-2-carbonyl)-amino]-methyl}-isoxazol-3-yl)-benzoic acid methyl ester]
- IC50: ≥ 500 nM

SMILES: N=C(c1ccc(-n2cc(CNC(=O)c3ccc(Cl)s3)cn2)cc1)N1CCCC1 [Example 328, 5-Chloro-N-((1-(4-(imino(pyrrolidin-1-yl)methyl)phenyl)-1H-pyrazol-4-yl)methyl)thiophene-2-carboxamide]
- IC50: ≤ 100 nM

SMILES: O=C(NCc1cn(-c2ccc(N3CCNCC3)nc2)nn1)c1ccc(Cl)s1 [Example 390, 5-Chloro-N-((1-(6-(piperazin-1-yl)pyridin-3-yl)-1H-1,2,3-triazol-4-yl)methyl)thiophene-2-carboxamide]
- IC50: 100 to 500 nM

SMILES: C[C@H](NC(=O)c1ccc(Cl)s1)c1cc(-c2ccc(C3=NCCN3C)cc2)no1 [Example 54, (S)-5-Chloro-thiophene-2-carboxylic acid (1-{3-[4-(1-methyl-4,5-dihydro-1H-imidazol-2-yl)-phenyl]-isoxazol-5-yl}-ethyl)-amide]
- IC50: ≥ 500 nM

SMILES: CN1CCC(Nc2ccc(C3=NOC(CNC(=O)c4ccc(Cl)s4)C3)cc2)CC1 (stereo not shown) [Example 237, 5-Chloro-thiophene-2-carboxylic acid {3-[4-(1-methyl-piperidin-4-ylamino)-phenyl]-4,5-dihydro-isoxazol-5-ylmethyl}-amide]
- IC50: 100 to 500 nM

SMILES: O=C(NCc1cn(-c2ccc(N3CCOCC3=O)cc2)nn1)c1ccc(Cl)s1 [Example 301, 5-Chloro-N-((1-(4-(3-oxomorpholino)phenyl)-1H-1,2,3-triazol-4-yl)methyl)thiophene-2-carboxamide]
- IC50: ≤ 100 nM

SMILES: N=C(c1ccc(-c2coc(CNC(=O)c3ccc(Cl)s3)n2)cc1)N1CCCC1 [Example 359, 5-Chloro-N-((4-(4-(imino(pyrrolidin-1-yl)methyl)phenyl)oxazol-2-yl)methyl)thiophene-2-carboxamide]
- IC50: 100 to 500 nM

SMILES: O=C(NCC1CC(c2ccc(N3CCOCC3)cc2)=NO1)c1ccc(Cl)s1 (stereo not shown) [Example 234, 5-Chloro-thiophene-2-carboxylic acid [3-(4-morpholin-4-yl-phenyl)-4,5-dihydro-isoxazol-5-ylmethyl]-amide]
- IC50: ≥ 500 nM

SMILES: CCOc1cc(C(=N)N2CCCC2)ccc1C1=NOC(CNC(=O)c2ccc(Cl)s2)C1 (stereo not shown) [Example 108, 5-Chloro-thiophene-2-carboxylic acid {3-[2-ethoxy-4-(imino-pyrrolidin-1-yl-methyl)-phenyl]-4,5-dihydro-isoxazol-5-ylmethyl}-amide]
- IC50: ≤ 100 nM

SMILES: O=C(NCc1cc(-c2ccc(-c3ccccc3CN3CCCC3)cc2)no1)c1ccc(Cl)s1 [Example 210, 5-Chloro-thiophene-2-carboxylic acid [3-(2′-pyrrolidin-1-ylmethyl-biphenyl-4-yl)-isoxazol-5-ylmethyl]-amide]
- IC50: 100 to 500 nM

SMILES: N=C(c1ccc(-c2nc(CNC(=O)c3ccc(Cl)s3)co2)cc1)N1CCC(C(N)=O)CC1 [Example 347, 1-((4-(4-((2-Chlorothiophene-5-carboxamido)methyl)oxazol-2-yl)phenyl)(imino)methyl)piperidine-4-carboxamide]
- IC50: 100 to 500 nM

SMILES: O=C(NCC1CC(C2CCN(Cc3ccccc3)CC2)=NO1)c1ccc(Cl)s1 (stereo not shown) [Example 170, 5-Chloro-thiophene-2-carboxylic acid [3-(1-benzyl-piperidin-4-yl)-4,5-dihydro-isoxazol-5-ylmethyl]-amide]
- IC50: ≥ 500 nM

SMILES: O=C(NCc1cc(-c2cccc(-c3cccnc3)c2)no1)c1ccc(Cl)s1 [Example 276, 5-Chloro-thiophene-2-carboxylic acid [3-(3-pyridin-3-yl-phenyl)-isoxazol-5-ylmethyl]-amide]
- IC50: ≥ 500 nM

SMILES: CCOc1cc(C(=N)N(C)C)ccc1C1=NOC(CNC(=O)c2ccc(Cl)s2)C1 (stereo not shown) [Example 106, 5-Chloro-thiophene-2-carboxylic acid {3-[4-(N,N-dimethyl-carbamimidoyl)-2-ethoxy-phenyl]-4,5-dihydro-isoxazol-5-ylmethyl}-amide]
- IC50: ≤ 100 nM

SMILES: COCCN(C)c1cc(C(=N)N2CCCC2)ccc1C1=NOC(CNC(=O)c2ccc(Cl)s2)C1 (stereo not shown) [Example 88, 5-Chloro-thiophene-2-carboxylic acid (3-{4-(imino-pyrrolidin-1-yl-methyl)-2-[(2-methoxy-ethyl)-methyl-amino]-phenyl}-4,5-dihydro-isoxazol-5-ylmethyl)-amide]
- IC50: 100 to 500 nM

SMILES: O=C(NCc1cc(-c2ccc(-n3ccccc3=O)cc2)no1)c1ccc(Cl)s1 [Example 289, 5-Chloro-N-((3-(4-(2-oxopyridin-1(2H)-yl)phenyl)isoxazol-5-yl)methyl)thiophene-2-carboxamide]
- IC50: ≤ 100 nM

SMILES: O=C(NCc1cn(-c2ccc(-n3cccc(Cl)c3=O)cc2)nn1)c1ccc(Cl)s1 [Example 292, 5-Chloro-N-((1-(4-(3-chloro-2-oxopyridin-1(2H)-yl)phenyl)-1H-1,2,3-triazol-4-yl)methyl)thiophene-2-carboxamide]
- IC50: ≤ 100 nM

SMILES: O=C(NCC1CC(c2cccc(-c3cccnc3)c2)=NO1)c1ccc(Cl)s1 (stereo not shown) [Example 274, 5-Chloro-thiophene-2-carboxylic acid [3-(3-pyridin-3-yl-phenyl)-4,5-dihydro-isoxazol-5-ylmethyl]-amide]
- IC50: ≥ 500 nM

SMILES: COc1ccc(-c2cc(CNC(=O)c3ccc(Cl)s3)on2)cc1 [Example 152, 5-Chloro-thiophene-2-carboxylic acid [3-(4-methoxy-phenyl)-isoxazol-5-ylmethyl]-amide]
- IC50: ≥ 500 nM

SMILES: N=C(c1ccc(-n2cc(CNC(=O)c3ccc(Cl)s3)cn2)cc1)N1CCCCC1 [Example 329, 5-Chloro-N-((1-(4-(imino(piperidin-1-yl)methyl)phenyl)-1H-pyrazol-4-yl)methyl)thiophene-2-carboxamide]
- IC50: ≤ 100 nM

SMILES: N=C(c1ccc(-c2cc(CNC(=O)c3ccc(Cl)s3)on2)c(F)c1)N1CCCCC1 [Example 72, 5-Chloro-thiophene-2-carboxylic acid {3-[2-fluoro-4-(imino-piperidin-1-yl-methyl)-phenyl]-isoxazol-5-ylmethyl}-amide]
- IC50: ≤ 100 nM

SMILES: O=C(NCC1CC(c2ccc(Cl)cc2)=NO1)c1ccc(Cl)s1 (stereo not shown) [Example 153, 5-Chloro-thiophene-2-carboxylic acid [3-(4-chloro-phenyl)-4,5-dihydro-isoxazol-5-ylmethyl]-amide]
- IC50: ≥ 500 nM
